# Experimental data reported in patent US20130079383A1, “Lipid Compounds Targeting VLA-4” (ARROWHEAD RESEARCH CORPORATION, priority 2011, published 2013).
# Where a name gives a salt, the structure may show the parent alone.
# Target: T1, VLA-4 (Homo sapiens, UniProt P05556+P13612)
# T1 construct: Jurkat cells express high levels of VLA-4 on their membrane surface; host or cells: Jurkat Clone E6-1
# Test: VLA-4/VCAM binding (adhesion) assay in Jurkat cells
# Format: cell-based
# Conditions: Jurkat cells activated with 0.5 mM Mn2+, VCAM-1-coated plates, 45 min at 37° C.
# Description: The following adhesion assay has been reported previously and used in this invention with minor modification. See U.S. Pat. Nos. 6,229,011 and 6,380,387 both of which are incorparated herein by reference in their entirety. […] Each assay was conducted in a 96-well plate with VCAM-1 used as the counter ligand for the cells (i.e., VCAM-1 was bound to the surface of the wells). More specifically, 96-well high-binding F96 Maxisorp immuno microtiter plates (Nunc) were coated overnight with 25 ng/well of VCAM-1. On the day of the experiment, plates were blocked for 1 h with PBS buffer containing 1% nonfat dry milk to eliminate nonspecific binding. The plates were then washed with DPBS (Dulbecco's Phosphate Buffered Saline) and blotted dry. Any excess liquid was carefully aspirated from the wells. As a control, the small molecule antagonist (27) for inhibiting VLA-4 referred to above was added to control wells in buffer containing 4% DMSO and diluted down the plate, typically in a concentration range of 1000 nM to 0.2 nM. Jurkat Clone E6-1 cells (ATCC) were labeled with 100 μg/mL 6-carboxyfluorescein diacetate, a fluorescent dye, and then activated with RPMI 1640 medium containing 0.5 mM of the divalent cation Mn^2+ and 0.05% bovine serum albumin. It is noted that this activation is needed to achieve maximal binding for the ligand and may simulate the activation of integrins by cytokines and chemokines in vivo. […] To assess VLA-4 inhibition of the VLA-4 targeting lipids (from the examples), Jurkat cells (expressing high levels of VLA-4) were added to the VCAM-1-coated plates to a final concentration of 2×10^5 cells/well in 96-well plates and allowed to incubate with the test lipids (from the examples) for 45 min at 37° C. After removing unbound cells by gently washing the wells with PBS, the fluorescence signal from the bound cells was read on a Tecan Safire2 microplate reader at 450 nm. Points were plotted and the IC50s of each lipid were determined by regression analysis using the linear portion of the concentration-response curve.
# T1 sequence (P13612 34-1032): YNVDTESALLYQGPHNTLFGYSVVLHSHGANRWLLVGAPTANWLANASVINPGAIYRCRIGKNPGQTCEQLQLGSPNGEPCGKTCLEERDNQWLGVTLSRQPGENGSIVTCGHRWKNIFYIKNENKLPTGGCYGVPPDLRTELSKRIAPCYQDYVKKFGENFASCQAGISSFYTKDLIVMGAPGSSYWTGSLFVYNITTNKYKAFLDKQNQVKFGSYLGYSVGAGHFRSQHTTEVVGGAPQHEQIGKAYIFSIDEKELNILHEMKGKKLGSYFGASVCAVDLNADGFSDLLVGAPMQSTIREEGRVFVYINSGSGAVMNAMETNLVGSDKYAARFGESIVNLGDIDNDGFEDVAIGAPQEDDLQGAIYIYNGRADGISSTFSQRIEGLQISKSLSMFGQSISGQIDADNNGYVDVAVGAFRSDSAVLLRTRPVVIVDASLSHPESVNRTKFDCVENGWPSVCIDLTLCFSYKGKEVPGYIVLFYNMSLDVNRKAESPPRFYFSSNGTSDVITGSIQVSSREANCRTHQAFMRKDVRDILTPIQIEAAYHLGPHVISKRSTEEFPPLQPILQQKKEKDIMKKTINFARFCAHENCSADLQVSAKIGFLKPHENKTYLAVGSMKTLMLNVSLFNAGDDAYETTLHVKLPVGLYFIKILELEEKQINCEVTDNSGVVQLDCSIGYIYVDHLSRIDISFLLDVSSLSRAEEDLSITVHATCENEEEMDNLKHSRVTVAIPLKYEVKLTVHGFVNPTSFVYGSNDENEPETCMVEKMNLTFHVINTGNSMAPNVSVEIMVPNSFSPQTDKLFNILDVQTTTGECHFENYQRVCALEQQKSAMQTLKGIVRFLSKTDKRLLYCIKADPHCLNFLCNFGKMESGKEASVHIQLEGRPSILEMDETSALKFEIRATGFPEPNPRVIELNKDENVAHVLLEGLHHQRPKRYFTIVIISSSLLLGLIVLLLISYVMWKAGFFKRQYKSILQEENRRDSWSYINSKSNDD
# T1 sequence (P05556 21-798): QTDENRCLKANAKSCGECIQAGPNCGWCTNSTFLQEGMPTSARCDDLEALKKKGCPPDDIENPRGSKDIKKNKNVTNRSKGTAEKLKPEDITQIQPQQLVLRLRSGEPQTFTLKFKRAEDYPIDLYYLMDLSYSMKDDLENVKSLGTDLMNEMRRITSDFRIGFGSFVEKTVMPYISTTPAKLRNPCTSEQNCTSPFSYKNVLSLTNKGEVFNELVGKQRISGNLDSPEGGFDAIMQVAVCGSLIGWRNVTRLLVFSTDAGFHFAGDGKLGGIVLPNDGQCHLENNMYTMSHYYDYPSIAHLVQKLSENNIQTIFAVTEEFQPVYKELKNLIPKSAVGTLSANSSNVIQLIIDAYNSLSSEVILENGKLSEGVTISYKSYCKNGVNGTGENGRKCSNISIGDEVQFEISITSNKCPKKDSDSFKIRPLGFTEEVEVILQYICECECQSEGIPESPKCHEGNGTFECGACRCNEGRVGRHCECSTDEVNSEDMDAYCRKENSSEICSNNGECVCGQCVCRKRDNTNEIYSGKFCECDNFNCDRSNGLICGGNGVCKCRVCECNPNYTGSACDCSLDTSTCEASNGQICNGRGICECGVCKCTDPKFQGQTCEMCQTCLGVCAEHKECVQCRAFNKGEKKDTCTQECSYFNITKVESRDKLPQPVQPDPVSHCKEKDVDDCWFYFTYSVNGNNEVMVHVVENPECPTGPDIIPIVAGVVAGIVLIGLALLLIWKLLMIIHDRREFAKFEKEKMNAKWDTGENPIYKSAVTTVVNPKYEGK
row,IC50 [nM],SMILES
1,587,"CCCCCCCCCCCCOCC(C[N+](C)(C)CCCNC(=O)CCOCCOCCOCCOCCOCCOCCOCCOCCOCCC(=O)NCCC1(C(=O)N[C@@H](Cc2ccc(NC(=O)c3c(Cl)cccc3Cl)cc2)C(=O)O)CCCC1)OCCCCCCCCCCCC (stereo partly drawn) [Example 1, [2,3-bis(dodecyloxy)propyl][3-[[3-[2-[2-[2-[2-[2-[2-[2-[2-[[3-[[2-[1-[[[(S)-1-carboxy-2-[4-(2,6-dichloro-benzoylamino)phenyl]ethyl]amino]carbonyl]cyclopentyl]ethyl]amino]-3-oxopropyl]oxy]ethoxy]ethoxy]ethoxy]ethoxy]ethoxy]ethoxy]ethoxy]ethoxy]-1-oxopropyl]amino]propyl]dimethylaminium trifluoroacetate]"
2,942,"CCCCCCCCCCCCOCC(C[N+](C)(C)CCCNC(=O)CCC(=O)NCCOCCOCCOCCOCCOCCOCCOCCOCCOCCOCCOCCOCCC(=O)NCCC1(C(=O)N[C@@H](Cc2ccc(NC(=O)c3c(Cl)cccc3Cl)cc2)C(=O)O)CCCC1)OCCCCCCCCCCCC (stereo partly drawn) [Example 2, [2,3-bis(dodecyloxy)propyl][3-[[4-[[2-[2-[2-[2-[2-[2-[2-[2-[2-[2-[2-[2-[[3-[[2-[1-[[[(S)-1-carboxy-2-[4-(2,6-dichloro-benzoylamino)phenyl]ethyl]amino]carbonyl]cyclopentyl]ethyl]amino]-3-oxopropyl]oxy]ethoxy]ethoxy]ethoxy]ethoxy]ethoxy]ethoxy]ethoxy]ethoxy]ethoxy]ethoxy]ethoxy]ethyl]amino]-1-4-dioxobutyl]amino]propyl]dimethylaminium trifluoroacetate]"
3,1000,"CCCCCCCCCCCCCCCCOCC(C[N+](C)(C)CCCNC(=O)CCOCCOCCOCCOCCOCCOCCOCCOCCOCCC(=O)NCCC1(C(=O)N[C@@H](Cc2ccc(NC(=O)c3c(Cl)cccc3Cl)cc2)C(=O)O)CCCC1)OCCCCCCCCCCCCCCCC (stereo partly drawn) [Example 3, [[2,3-bis(hexadecyloxy)propyl][3-[[3-[2-[2-[2-[2-[2-[2-[2-[2-[[3-[[2-[1-[[[(S)-1-carboxy-2-[4-(2,6-dichloro-benzoylamino)phenyl]ethyl]amino]carbonyl]cyclopentyl]ethyl]amino]-3-oxopropyl]oxy]ethoxy]ethoxy]ethoxy]ethoxy]ethoxy]ethoxy]ethoxy]ethoxy]-1-oxopropyl]amino]propyl]dimethylaminium trifluoroacetate]"
4,308,"CCCCCCCCCCCCCCCCOCC(C[N+](C)(C)CCCNC(=O)CCC(=O)NCCOCCOCCOCCOCCOCCOCCOCCOCCOCCOCCOCCOCCC(=O)NCCC1(C(=O)NC(Cc2ccc(NC(=O)c3c(Cl)cccc3Cl)cc2)C(=O)O)CCCC1)OCCCCCCCCCCCCCCCC [Example 4, [2,3-bis(hexadecyloxy)propyl][3-[[4-[[2-2-[2-[2-[2-[2-[2-[2-[2-[2-[2-[2-[[3-[[2-[1-[[[(S)-1-carboxy-2-[4-(2,6-dichloro-benzoylamino)phenyl]ethyl]amino]carbonyl]cyclopentyl]ethyl]amino]-3-oxopropyl]oxy]ethoxy]ethoxy]ethoxy]ethoxy]ethoxy]ethoxy]ethoxy]ethoxy]ethoxy]ethoxy]ethoxy]ethyl]amino]-1,4-dioxobutyl]amino]propyl]dimethylaminium trifluoroacetate]"
5,6,"CCCCCCCCCCCCCCCCOCC(CN(C)CCCNC(=O)CCC(=O)NCCOCCOCCOCCOCCOCCOCCOCCOCCOCCOCCOCCOCCC(=O)NCCC1(C(=O)N[C@@H](Cc2ccc(NC(=O)c3c(Cl)cccc3Cl)cc2)C(=O)O)CCCC1)OCCCCCCCCCCCCCCCC (stereo partly drawn) [Example 5, (S)-Alpha-[[[1-[2-[[3-[2-[2-[2-[2-[2-[2-[2-[2-[2-[2-[2-[2-[[4-[[3-[[2,3-bis(hexadecyloxy)propyl]methylamino]propyl]amino]-1,4-dioxobutyl]amino]ethoxy]ethoxy]ethoxy]ethoxy]ethoxy]ethoxy]ethoxy]ethoxy]ethoxy]ethoxy]ethoxy]ethoxy]-1-oxoproyl]amino]ethyl]cyclopentyl]carbonyl]amino]-4-(2,6-dichlorobenzoylamino) benzenepropanoic acid]"
6,133,"CCCCCCCCCCCCCCCCCCOCC(C[N+](C)(C)CCCNC(=O)CCOCCOCCOCCOCCOCCOCCOCCOCCOCCC(=O)NCCC1(C(=O)N[C@@H](Cc2ccc(NC(=O)c3c(Cl)cccc3Cl)cc2)C(=O)O)CCCC1)OCCCCCCCCCCCCCCCCCC (stereo partly drawn) [Example 6, [2,3-bis(octadecyloxy)propyl][3-[[3-[2-[2-[2-[2-[2-[2-[2-[2-[[3-[[2-[1-[[[(S)-1-carboxy-2-[4-(2,6-dichloro-benzoylamino)phenyl]ethyl]amino]carbonyl]cyclopentyl]ethyl]amino]-3-oxopropyl]oxy]ethoxy]ethoxy]ethoxy]ethoxy]ethoxy]ethoxy]ethoxy]ethoxy]-1-oxopropyl]amino]propyl]dimethylaminium bromide]"
7,89,"CCCCCCCCCCCCCCCCCCCCOCC(C[N+](C)(C)CCCNC(=O)CCOCCOCCOCCOCCOCCOCCOCCOCCOCCC(=O)NCCC1(C(=O)N[C@@H](Cc2ccc(NC(=O)c3c(Cl)cccc3Cl)cc2)C(=O)O)CCCC1)OCCCCCCCCCCCCCCCCCCCC (stereo partly drawn) [Example 7, [2,3-bis(icosanyloxy)propyl][3-[[3-[2-[2-[2-[2-[2-[2-[2-[2-[[3-[[2-[1-[[[(S)-1-carboxy-2-[4-(2,6-dichloro-benzoylamino)phenyl]ethyl]amino]carbonyl]cyclopentyl]ethyl]amino]-3-oxopropyl]oxy]ethoxy]ethoxy]ethoxy]ethoxy]ethoxy]ethoxy]ethoxy]ethoxy]-1-oxopropyl]amino]propyl]dimethylaminium bromide]"
8,1000,"CCCCCCCCCCCCCCCCCCCCOCC(CN(C)CCCNC(=O)CCOCCOCCOCCOCCOCCOCCOCCOCCOCCC(=O)NCCC1(C(=O)N[C@@H](Cc2ccc(NC(=O)c3c(Cl)cccc3Cl)cc2)C(=O)O)CCCC1)OCCCCCCCCCCCCCCCCCCCC (stereo partly drawn) [Example 8, (S)-Alpha-[[[1-[2-[[3-[2-[2-[2-[2-[2-[2-[2-[2-[[3-[[3-[[2,3-bis(icosanyloxy)propyl]methylamino]propyl]amino]-3-oxopropyl]oxy]ethoxy]ethoxy]ethoxy]ethoxy]ethoxy]ethoxy]ethoxy]ethoxy]-1-oxoproyl]amino]ethyl]cyclopentyl]carbonyl]amino]-4-(2,6-dichlorobenzoylamino)benzenepropanoic acid]"

# Tested on: KIF11 mRNA
# Test: KIF11 mRNA knockdown in MV4-11 cells by LNP-formulated KIF11 siRNA (relative to 18S ribosomal RNA)
# Format: cell-based, human
# Conditions: added with no formulation as a control
# Description: FIG. 1. Bar graph illustrating KIF11 mRNA knockdown in MV4-11 cells (relative to 18S ribosomal RNA as a control) with various LNP formulations containing KIF11 siRNA (formulation nos. 54F, 54I, 54L, and 54O).
# The human cancer cell line MV4-11 was maintained in media supplemented with 10% heat-inactivated Fetal Bovine Serum (HI-FBS; Gibco/BRL, Gaithersburg, Md.) and 2 mM L-glutamine (Gibco/BRL).
# MV4-11 suspension cells in 1 ml of culturing medium were seeded in 24-well plates 24 h before transfection and RNA quantification targeting siRNA were formulated in LNPs and directly added to the medium for transfection. Cells were then collected for RNA quantification.
# Sample collection and mRNA purification for in vitro studies were performed as follows. MV4-11 cells were lysed directly on the plate with RNA lysis buffer (Qiagen). Suspension cells were collected into tubes and spun down at 2,000 rpm for 1 min, then the cell pellets were lysed with RNA lysis buffer (Qiagen). […]
# Total RNA from all collected samples was purified using Qiagen RNeasy Kit following the manufacturer's protocol. Relative quantification of target mRNA and 18S ribosomal RNA gene expression was carried out with cDNA Reverse Transcription Reagents from Applied Biosystems followed by Taqman Gene Expression Assays (Applied Biosystems) using the manufacturer's protocol. […]
row,SMILES,knockdown of KIF11 expression
1,"Cc1cccc(Cl)c1C(=O)N[C@@H](Cc1ccc(NC(=O)c2c(Cl)cccc2Cl)cc1)C(=O)O [Example 27, (S)-2-(2-Chloro-6-methyl-benzoylamino)-3-[4-(2,6-dichloro-benzoylamino)-phenyl]-propionic acid]",no knockdown
